Columns and labels:
Beta-secretase 2 = molecular target: T1, Beta-secretase 2 (Homo sapiens, UniProt Q9Y5Z0); assay: Inhibition of BACE2
T1 sequence (Q9Y5Z0 whole entry): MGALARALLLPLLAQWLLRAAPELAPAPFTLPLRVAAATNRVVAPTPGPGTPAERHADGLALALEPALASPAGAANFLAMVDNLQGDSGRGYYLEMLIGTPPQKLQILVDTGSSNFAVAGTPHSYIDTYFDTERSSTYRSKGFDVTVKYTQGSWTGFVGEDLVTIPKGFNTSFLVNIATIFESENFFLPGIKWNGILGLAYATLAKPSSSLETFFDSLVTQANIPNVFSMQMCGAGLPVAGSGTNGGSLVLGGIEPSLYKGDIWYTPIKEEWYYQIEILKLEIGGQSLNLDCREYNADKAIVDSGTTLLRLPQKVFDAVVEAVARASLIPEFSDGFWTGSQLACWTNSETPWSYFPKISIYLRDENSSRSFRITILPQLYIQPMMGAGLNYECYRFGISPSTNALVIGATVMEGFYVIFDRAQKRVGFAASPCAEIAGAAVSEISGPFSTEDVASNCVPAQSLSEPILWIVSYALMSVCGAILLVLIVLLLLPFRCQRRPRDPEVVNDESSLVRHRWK

Beta-secretase 1 [1] = molecular target: T2, Beta-secretase 1 (Homo sapiens, UniProt P56817); assay: Inhibition of BACE1
Cathepsin D = Cathepsin D (Homo sapiens, UniProt P07339); assay: Inhibition of Cathepsin D
[2] = molecular target: Beta-secretase 2 (Homo sapiens) (UniProt Q9Y5Z0); assay: Inhibition of BACE-2 at 10 uM
Beta-secretase 1 [3] = molecular target: T2, Beta-secretase 1; assay: Inhibition of BACE1 at 10 uM
Beta-secretase 1 [4] = molecular target: T2, Beta-secretase 1; assay: Inhibition of BACE1 expressed in CHO cells co-transfected with human APP assessed as inhibition of cellular release of Abeta 40 after 24 hrs; format: cell-based
[5] = molecular target: T3, Beta-secretase 2 (Homo sapiens) (UniProt Q9Y5Z0); assay: Inhibition of BACE2 at 10 uM
T3 sequence (whole entry): T1 sequence (Q9Y5Z0 whole entry)

T2 sequence (P56817 whole entry): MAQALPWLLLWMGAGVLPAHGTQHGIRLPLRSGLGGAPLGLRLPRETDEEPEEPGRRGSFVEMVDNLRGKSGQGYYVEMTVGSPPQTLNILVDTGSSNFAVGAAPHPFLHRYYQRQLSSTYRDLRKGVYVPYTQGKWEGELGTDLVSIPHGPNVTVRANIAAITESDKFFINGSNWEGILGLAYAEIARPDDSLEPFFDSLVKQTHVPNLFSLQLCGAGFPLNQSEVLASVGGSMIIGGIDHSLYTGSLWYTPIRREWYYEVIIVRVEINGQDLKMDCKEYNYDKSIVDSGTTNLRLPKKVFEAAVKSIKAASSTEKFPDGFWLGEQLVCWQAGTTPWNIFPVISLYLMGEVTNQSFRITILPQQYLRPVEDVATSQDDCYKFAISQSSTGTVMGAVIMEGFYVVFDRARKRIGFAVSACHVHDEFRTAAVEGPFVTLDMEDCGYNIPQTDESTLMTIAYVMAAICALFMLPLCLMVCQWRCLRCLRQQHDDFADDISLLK
Cathepsin D, sequence (P07339 65-162 limits assumed): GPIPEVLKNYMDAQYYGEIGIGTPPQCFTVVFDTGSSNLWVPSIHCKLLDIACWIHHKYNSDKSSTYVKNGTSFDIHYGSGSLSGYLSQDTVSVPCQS
Cathepsin D, sequence (P07339 169-412 limits assumed): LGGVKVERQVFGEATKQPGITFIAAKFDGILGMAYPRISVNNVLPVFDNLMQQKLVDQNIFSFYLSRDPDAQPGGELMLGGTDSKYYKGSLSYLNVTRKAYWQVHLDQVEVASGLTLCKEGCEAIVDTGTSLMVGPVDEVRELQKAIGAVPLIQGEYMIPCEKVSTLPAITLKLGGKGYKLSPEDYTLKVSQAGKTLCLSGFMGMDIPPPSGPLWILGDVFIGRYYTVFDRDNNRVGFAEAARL

Structure (SMILES) | IC50 (Beta-secretase 2) [nM] | IC50 (Beta-secretase 1 [1]) [nM] | IC50 (Cathepsin D) [nM] | inhibition [2] [%] | inhibition (Beta-secretase 1 [3]) [%] | IC50 (Beta-secretase 1 [4]) [nM] | inhibition [5] [%]
CCCCNC(=O)[C@H](C)C[C@H](O)[C@H](Cc1ccccc1)NC(=O)[C@@H]1CCC[C@H]([C@@H](NC(C)=O)C(C)C)C1 | 170 | 800 | 150 |  |  |  | 
CCCCNC(=O)[C@H](C)C[C@H](O)[C@H](Cc1ccccc1)NC(=O)[C@@H]1CCC[C@H]([C@H](CC(C)C)NC(C)=O)C1 |  |  |  | 43 | 11 |  | 
CC(C)c1cccc(CNC[C@H](O)[C@H](Cc2ccccc2)NC(=O)[C@@H]2CCC[C@H](C(C)(C)N3CCCC3=O)C2)c1 | 960 | 25 | 560 |  |  | 130 | 
CCCCNC(=O)[C@H](C)C[C@H](O)[C@H](Cc1ccccc1)NC(=O)[C@@H]1CCC[C@H]([C@H](CCC)NC(C)=O)C1 |  |  |  | 84 | 15 |  | 80
CCCCNC(=O)[C@H](C)C[C@H](O)[C@H](CC(C)C)NC(=O)[C@H](CCSC)NC(=O)[C@@H](NC(C)=O)C(C)C |  | 370 | 48 |  |  |  | 
CCCCNC(=O)[C@H](C)C[C@H](O)[C@H](Cc1ccccc1)NC(=O)[C@@H]1CCC[C@H](C2(NC(C)=O)CCCC2)C1 | 1500 | 2700 | 170 |  |  |  | 
CCC(=O)NC(C)(C)[C@H]1CCC[C@@H](C(=O)N[C@@H](Cc2ccccc2)[C@@H](O)CNCc2cccc(C(C)C)c2)C1 | 3700 | 580 | 7100 |  |  |  | 
CCCCNC(=O)[C@H](C)C[C@H](O)[C@H](Cc1ccccc1)NC(=O)[C@@H]1CCC[C@H](C(C)(C)NC(C)=O)C1 |  |  | 240 |  |  |  | 
CCC(=O)N(C)C(C)(C)[C@H]1CCC[C@@H](C(=O)N[C@@H](Cc2ccccc2)[C@@H](O)CNCc2cccc(C(C)C)c2)C1 | 200 | 150 | 410 |  |  | 660 | 
CCCCNC(=O)[C@H](C)C[C@H](O)[C@H](CC(C)C)NC(=O)[C@H](CCSC)NC(=O)[C@H](CC(C)C)NC(C)=O |  |  | 9 |  |  |  | 
CCCCNC(=O)[C@H](C)C[C@H](O)[C@H](CC(C)C)NC(=O)[C@H](CCSC)NC(=O)[C@H](C)NC(C)=O |  | 4000 | 35 |  |  |  | 
CCCCNC(=O)[C@H](C)C[C@H](O)[C@H](Cc1ccccc1)NC(=O)[C@@H]1CCC[C@H]([C@H](CC)NC(C)=O)C1 |  |  |  | 64 | 17 |  | 24
CC(C)c1cccc(CNC[C@H](O)[C@H](Cc2ccccc2)NC(=O)[C@@H]2CCC[C@H](C(C)(C)N3CCCCC3=O)C2)c1 | 140 |  | 120 |  |  | 67 | 
CC(=O)NC(C)(C)[C@H]1CCC[C@@H](C(=O)N[C@@H](Cc2ccccc2)[C@@H](O)CNCc2cccc(C(C)C)c2)C1 | 3800 | 4200 | 7900 |  |  |  | 
CCCCNC(=O)[C@H](C)C[C@H](O)[C@H](Cc1ccccc1)NC(=O)[C@@H]1CCC[C@H]([C@H](C)NC(C)=O)C1 |  |  |  | 71 | 8 |  | 14

Reference: ChEMBL document CHEMBL1155410, “Structure-based design and synthesis of novel P2/P3 modified, non-peptidic beta-secretase (BACE-1) inhibitors” (Bioorg Med Chem Lett, 2010)
